Source: patent publication US20230271949A1, “GLP-1R MODULATING COMPOUNDS” (ASCLETIS BIOSCIENCE CO., LTD., priority 2022, published 2023)

Biological target: GLP-1R (Homo sapiens, UniProt P43220)
Assay: GLP-1R agonist cAMP stimulation assay (HTRF cAMP)
Type: cell-based
Conditions: HEK293 cell line expressing GLP-1 target; HTRF cAMP agonist mode, 30 min at RT
Method in brief: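 GLP-1R-expressing cells were stimulated with 10-point, 3-fold compound dilutions for 30 min at RT; HTRF cAMP detection reagents were then added for 60 min and the 665/615 ratio read. Ratios were converted to cAMP via a standard curve and % activity scaled between DMSO and top-concentration GLP-1(7-37) reference wells.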

GLP-1R, sequence (P43220 24-463): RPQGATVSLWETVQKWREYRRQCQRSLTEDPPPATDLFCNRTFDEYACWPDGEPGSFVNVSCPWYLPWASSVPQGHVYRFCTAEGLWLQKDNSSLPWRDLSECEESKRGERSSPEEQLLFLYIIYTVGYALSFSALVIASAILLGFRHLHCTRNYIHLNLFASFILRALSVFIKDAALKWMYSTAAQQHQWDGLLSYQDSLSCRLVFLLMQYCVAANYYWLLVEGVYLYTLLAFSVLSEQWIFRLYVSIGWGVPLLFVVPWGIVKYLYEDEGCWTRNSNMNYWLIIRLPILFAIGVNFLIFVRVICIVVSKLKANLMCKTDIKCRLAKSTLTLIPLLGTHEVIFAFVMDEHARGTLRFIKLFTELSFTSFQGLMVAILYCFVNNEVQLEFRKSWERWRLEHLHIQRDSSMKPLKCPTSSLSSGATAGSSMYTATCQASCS

Cc1n[nH]c2ccc(NC(=O)c3ccc4c(c3)nc(CN3CC=C(c5cccc(OCc6ccc(C#N)c7ccccc67)n5)CC3)n4C[C@@H]3CCO3)cc12 [Compound 366]
EC50: 5.97 nM

COCCn1c(Cc2ccc(-c3cccc(OCc4ccc(C#N)cc4F)n3)cc2)nc2cc(C(=O)NCCc3ccc(O)cc3)ccc21 [Compound 1, 2-(4-(6-((4-cyano-2-fluorobenzyl)oxy)pyridin-2-yl)benzyl)-N-(4-hydroxyphenethyl)-1-(2-methoxyethyl)-1H-benzo[d]imidazole-5-carboxamide]
EC50: 4150 nM

N#Cc1ccc(COc2cccc(C3=CCN(Cc4nc5cc(C(=O)Nc6ccc7c(c6)C6(CC6)C(=O)N7)ccc5n4C[C@@H]4CCO4)CC3)n2)c(F)c1 [Compound 182]
EC50: 0.32 nM

C=C(C)c1n[nH]c2ccc(C(=O)Nc3ccc4c(c3)nc(Cc3c(F)cc(-c5cccc6c5OC(C)(c5ccc(Cl)cc5F)O6)cc3F)n4CC3CCO3)cc12 (centres unmarked) [Compound 327]
EC50: 3.96 nM

O=C(Nc1ccn2ncc(Cl)c2c1)c1ccc2c(c1)nc(CN1CCC(c3cccc(OCc4ccc(Cl)cc4F)n3)CC1)n2CC1CCO1 (centres unmarked) [Compound 97]
EC50: 140 nM

O=C(Nc1ccc2[nH]ncc2c1)c1ccc2c(c1)nc(CN1CC=C(c3cccc(OCc4ccc(Cl)cc4F)n3)CC1)n2C[C@@H]1CCO1 [Compound 141]
EC50: 3.29 nM

C[C@H](NC(=O)c1ccc2c(c1)nc(CN1CCC(c3cccc(OCc4ccc(Cl)cc4F)n3)CC1)n2C[C@@H]1CCO1)C(=O)N1C[C@H](O)C[C@H]1C(=O)O [Compound 57]
EC50: 1.41 nM

O=C(Nc1cc(C(F)(F)F)c2c(c1)C1(CC1)C(=O)N2)c1ccc2c(c1)nc(CN1CC=C(c3cccc(OCc4ccc(Cl)cc4F)n3)CC1)n2C[C@@H]1CCO1 [Compound 157]
EC50: 0.77 nM

N#Cc1ccc(COc2cccc(C3CCN(Cc4nc5cc(C(=O)Nc6ccc7c(c6)C6(CC6)C(=O)N7)ccc5n4C[C@@H]4CCO4)CC3)n2)c(F)c1 [Compound 128]
EC50: 0.3 nM

Cc1n[nH]c2c(F)cc(C(=O)Nc3ccc4c(c3)nc(CN3CC=C(c5cccc(OCc6ccc(C#N)cc6F)n5)CC3)n4C[C@@H]3CCO3)cc12 [Compound 225]
EC50: 0.18 nM

COC(=O)[C@@H]1CC(F)(F)CN1C(=O)[C@H](C)NC(=O)c1ccc2c(c1)nc(CN1CC=C(c3cccc(OCc4ccc(Cl)cc4F)n3)CC1)n2C[C@@H]1CCO1 [Compound 71]
EC50: 132 nM

O=C(NCC(=O)N1C[C@@H](O)[C@@H](O)C1)c1ccc2c(c1)nc(CN1CCC(c3cccc(OCc4ccc(Cl)cc4F)n3)CC1)n2C[C@@H]1CCO1 [Compound 67]
EC50: 5.89 nM

Cc1n[nH]c2c(C(F)(F)F)cc(C(=O)Nc3ccc4c(c3)nc(CN3CC=C(c5cccc6c5OC(C)(c5ccc(Cl)cc5F)O6)CC3)n4C[C@@H]3CCO3)cc12 (some centres unmarked) [Compound 313]
EC50: 1.39 nM

Cc1n[nH]c2ncc(C(=O)Nc3ccc4c(c3)nc(CN3CC=C(c5cccc(OCc6ccc(C#N)cc6F)n5)CC3)n4C[C@@H]3CCO3)cc12 [Compound 234]
EC50: 3.87 nM

CC(C)c1n[nH]c2ccc(NC(=O)c3ccc4c(c3)nc(CN3CC=C(c5cccc(OCc6ccc(Cl)cc6F)n5)CC3)n4C[C@@H]3CCO3)cc12 [Compound 140]
EC50: 2.97 nM

Cc1n[nH]c2c(C)cc(NC(=O)c3cc4c(nc(CN5CC=C(c6cccc(OCc7ccc(Cl)cc7F)n6)CC5)n4C[C@@H]4CCO4)s3)cc12 [Compound 405]
EC50: 39.9 nM

Cc1cc(NC(=O)c2ccc3nc(CN4CC=C(c5cccc(OCc6ccc(Cl)cc6F)n5)CC4)n(C[C@@H]4CCO4)c3c2)cc2c1NC(=O)C21CC1 [Compound 267]
EC50: 1.99 nM

N#Cc1ccc(COc2cccc(C3CCN(Cc4nc5cc(C(=O)Nc6ccc7[nH]nc(C(F)(F)F)c7c6)ccc5n4C[C@@H]4CCO4)CC3)n2)c(F)c1 [Compound 130]
EC50: 1.34 nM

Cc1cc2cc(C(=O)Nc3ccc4c(c3)nc(CN3CC=C(c5cccc(OCc6ccc(Cl)cc6F)n5)CC3)n4C[C@@H]3CCO3)ccc2[nH]1 [Compound 394]
EC50: 21.1 nM

Cc1cc(NC(=O)c2ccc3c(c2)nc(CN2CC=C(c4cccc(OCc5ccc(Cl)cc5F)n4)CC2)n3C[C@@H]2CCO2)cc2c1NC(=O)C21CC1 [Compound 155]
EC50: 0.55 nM
